Reference: patent US20240150298A1, “ANTIBACTERIAL COMPOUNDS” (Blacksmith Medicines, Inc., priority 2021, published 2024)
≈ marks a conversion by molar mass, not a printed value.

Assays:
P. aeruginosa LpxC = biological target: T1, P. aeruginosa LpxC (Pseudomonas aeruginosa, UniProt P47205); test: LpxC Binding Assay (Rapid Fire MS assay); type: biochemical
T1 sequence (P47205 1-303): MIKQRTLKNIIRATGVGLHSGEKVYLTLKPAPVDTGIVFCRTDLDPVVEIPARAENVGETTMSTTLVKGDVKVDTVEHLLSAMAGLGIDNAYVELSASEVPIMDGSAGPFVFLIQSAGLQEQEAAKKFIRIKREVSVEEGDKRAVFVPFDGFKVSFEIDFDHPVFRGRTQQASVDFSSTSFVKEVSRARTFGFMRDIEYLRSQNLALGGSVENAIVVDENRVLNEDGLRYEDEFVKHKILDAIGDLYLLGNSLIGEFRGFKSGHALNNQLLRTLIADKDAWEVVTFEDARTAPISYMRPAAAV
Protocol: (§1) IC50 values against E. coli and P. aeruginosa LpxC are determined using a Rapid Fire MS assay as previously described J. Med. Chem. 2012, 55, 1662-1670.

E. coli LpxC = E. coli LpxC (Escherichia coli, UniProt P0A725); test: LpxC Binding Assay (Rapid Fire MS assay); type: biochemical
Sequence of E. coli LpxC (P0A725 whole entry): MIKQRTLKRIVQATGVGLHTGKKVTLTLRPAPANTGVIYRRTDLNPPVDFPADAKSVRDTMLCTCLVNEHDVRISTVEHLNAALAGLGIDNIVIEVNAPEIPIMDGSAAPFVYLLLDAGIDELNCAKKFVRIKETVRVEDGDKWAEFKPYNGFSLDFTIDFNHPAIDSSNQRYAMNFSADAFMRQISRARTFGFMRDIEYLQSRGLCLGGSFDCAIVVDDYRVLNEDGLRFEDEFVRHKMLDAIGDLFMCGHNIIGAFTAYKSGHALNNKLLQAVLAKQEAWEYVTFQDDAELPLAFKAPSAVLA
Protocol: as §1

K. pneumoniae LpxC = K. pneumoniae LpxC (Klebsiella pneumoniae subsp. pneumoniae, UniProt A6T4N9); test: LpxC Binding Assay (Rapid Fire MS assay); type: biochemical
Sequence of K. pneumoniae LpxC (A6T4N9 whole entry): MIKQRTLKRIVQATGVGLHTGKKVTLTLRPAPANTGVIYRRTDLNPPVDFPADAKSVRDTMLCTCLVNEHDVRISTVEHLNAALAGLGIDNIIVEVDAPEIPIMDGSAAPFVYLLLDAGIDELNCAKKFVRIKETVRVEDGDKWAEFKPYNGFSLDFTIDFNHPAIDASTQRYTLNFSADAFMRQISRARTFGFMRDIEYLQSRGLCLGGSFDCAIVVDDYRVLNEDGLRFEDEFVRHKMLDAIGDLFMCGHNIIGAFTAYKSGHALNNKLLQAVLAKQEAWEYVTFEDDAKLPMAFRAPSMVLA

P. aeruginosa 209 PAO1 = test: Bacterial susceptibility testing, MIC by broth microdilution (CLSI); type: cell-based; conditions: 35° C., 18-24 h; for MIC: Pseudomonas aeruginosa, PAO1, broth microdilution, read-out: MIC P. aeruginosa 209 PAO1
Protocol: (§2) Minimal inhibitory concentrations (MIC) were determined by the broth microdilution method in accordance with the Clinical and Laboratory Standards Institute (CLSI) guidelines. In brief, organism suspensions were adjusted to a final inoculum between 3×10^5 and 7×10^5 colony-forming units (CFU)/mL. Drug dilutions and inocula were made in sterile, cation adjusted Mueller-Hinton Broth (Beckton Dickinson). In wells, an inoculum volume of 100 μL was mixed to 2 μL of DMSO with 2-fold serial dilutions of drug. All inoculated microdilution trays were incubated in ambient air at 35° C. for 18-24 h. Following incubation, the lowest concentration of the drug that prevented visible growth (OD600 nm<0.05) was recorded as the MIC. Performance of the assay was monitored by the use of laboratory quality-control strains and compounds with defined MIC spectrum, in accordance with CLSI guidelines.

K. pneumoniae ATCC13883 = test: as above; type: cell-based; conditions: 35° C., 18-24 h; for MIC: Klebsiella pneumoniae, ATCC13883, broth microdilution, read-out: MIC K. pneumoniae ATCC13883; for MIC K. pneumoniae ATCC13883: broth microdilution
Protocol: as §2

P. aeruginosa ATCC27835 = test: as above; type: cell-based; conditions: 35° C., 18-24 h; for MIC: Pseudomonas aeruginosa, ATCC27835, broth microdilution, read-out: MIC P. aeruginosa ATCC27835
Protocol: as §2

E. coli ATCC25922 = test: as above; type: cell-based; conditions: 35° C., 18-24 h; for MIC: Escherichia coli, ATCC25922, broth microdilution, read-out: MIC E. coli ATCC25922; for MIC E. coli ATCC25922: broth microdilution
Protocol: as §2

MIC (E. coli ATCC25922) [µg/mL] | SMILES | IC50 (P. aeruginosa LpxC) [nM] | IC50 (E. coli LpxC) [nM] | IC50 (K. pneumoniae LpxC) [nM] | MIC (P. aeruginosa 209 PAO1) [µg/mL] | MIC (K. pneumoniae ATCC13883) [µg/mL] | MIC (P. aeruginosa ATCC27835) [µg/mL] | MIC E. coli ATCC25922 (E. coli ATCC25922) [µg/mL] | MIC K. pneumoniae ATCC13883 (K. pneumoniae ATCC13883) [µg/mL] | MIC P. aeruginosa 209 PAO1 (P. aeruginosa 209 PAO1; broth microdilution) [µg/mL] | MIC P. aeruginosa ATCC27835 (P. aeruginosa ATCC27835; broth microdilution) [µg/mL]
 | CCOCC(O)COc1ccc(-c2ccc(/C=C/[C@@H](CO)n3ccnc3[C@H](C)O)cc2)cc1 (mixture of isomers) [Compound 36, (2S,E)-4-(4′-(3-ethoxy-2-hydroxypropoxy)-[1,1′-biphenyl]-4-yl)-2-(2-((S)-1-hydroxyethyl)-1H-imidazol-1-yl)but-3-en-1-ol] | 21.3 | < 0.5 | 0.8 | 2 (≈ 4.42 µM) | 1 (≈ 2.21 µM) | 4 (≈ 8.84 µM) |  |  |  | 
 | C[C@H](O)c1nccn1[C@@H](/C=C/c1ccc(-c2ccc(OC[C@@H](O)CN(C)C)cc2)cc1)CO [Compound 26, (S,E)-4-(4′-((S)-3-(dimethylamino)-2-hydroxypropoxy)-[1,1′-biphenyl]-4-yl)-2-(2-((S)-1-hydroxyethyl)-1H-imidazol-1-yl)but-3-en-1-ol] | 17.4 | 0.6 | 1.4 | 4 (≈ 8.86 µM) | 2 (≈ 4.43 µM) | 8 (≈ 17.7 µM) |  |  |  | 
 | C[C@H](O)c1nccn1[C@@H](/C=C/c1ccc(-c2ccc(OCC(N)CO)cc2)cc1)CO (mixture of isomers) [Compound 8, (2S,E)-4-(4′-(2-amino-3-hydroxypropoxy)-[1,1′-biphenyl]-4-yl)-2-(2-((S)-1-hydroxyethyl)-1H-imidazol-1-yl)but-3-en-1-ol] |  |  |  | 4 (≈ 9.44 µM) |  | 4 (≈ 9.44 µM) | 16 (≈ 37.8 µM) | 64 (≈ 151 µM) |  | 
8 (≈ 16.3 µM) | C[C@H](O)c1nccn1[C@@H](/C=C/c1ccc(-c2ccc(C3CC(CNCC(O)CO)C3)cc2)cc1)CO (stereo partly drawn) [Compound 60, 3-(((3-(4′-((S,E)-4-hydroxy-3-(2-((S)-1-hydroxyethyl)-1H-imidazol-1-yl)but-1-en-1-yl)-[1,1′-biphenyl]-4-yl)cyclobutyl)methyl)amino) propane-1,2-diol] |  |  |  | 4 (≈ 8.14 µM) | 16 (≈ 32.5 µM) | 4 (≈ 8.14 µM) |  |  |  | 
0.5 (≈ 0.975 µM) | C[C@H](O)c1nccn1[C@@H](/C=C/c1ccc(-c2ccc(C3CC(C(=O)NCc4cocn4)C3)cc2)cc1)CO (stereo partly drawn) [Compound 54, 3-(4′-((S,E)-4-hydroxy-3-(2-((S)-1-hydroxyethyl)-1H-imidazol-1-yl)but-1-en-1-yl)-[1,1′-biphenyl]-4-yl)-N-(oxazol-4-ylmethyl)cyclobutane-1-carboxamide] |  |  |  | 2 (≈ 3.9 µM) | 1 (≈ 1.95 µM) | 4 (≈ 7.8 µM) |  |  |  | 
 | C[C@H](O)c1nccn1[C@@H](/C=C/c1ccc(-c2ccc(OCC(N)CO)cc2)cc1)CO (mixture of isomers) [Compound 25, (2S,E)-4-(4′-(2-amino-3-hydroxypropoxy)-[1,1′-biphenyl]-4-yl)-2-(2-((S)-1-hydroxyethyl)-1H-imidazol-1-yl)but-3-en-1-ol] | 70.6 | 44.6 |  |  |  |  | 2 (≈ 4.72 µM) | 4 (≈ 9.44 µM) | 2 (≈ 4.72 µM) | 2 (≈ 4.72 µM)
0.25 (≈ 0.502 µM) | C[C@H](O)c1nccn1[C@@H](/C=C/c1ccc(-c2ccc(C3CC(NCC(F)(F)CO)C3)cc2)cc1)CO (stereo partly drawn) [Compound 45, (S,E)-4-(4′-(3-((2,2-difluoro-3-hydroxypropyl)amino)cyclobutyl)-[1,1′-biphenyl]-4-yl)-2-(2-((S)-1-hydroxyethyl)-1H-imidazol-1-yl)but-3-en-1-ol] |  |  |  | 4 (≈ 8.04 µM) | 0.5 (≈ 1 µM) | 4 (≈ 8.04 µM) |  |  |  | 
16 (≈ 35.4 µM) | C[C@H](O)c1nccn1[C@@H](/C=C/c1ccc(-c2ccc(OCC(O)CN(C)C)cc2)cc1)CO (mixture of isomers) [Compound 21, (2S,E)-4-(4′-(3-(dimethylamino)-2-hydroxypropoxy)-[1,1′-biphenyl]-4-yl)-2-(2-((S)-1-hydroxyethyl)-1H-imidazol-1-yl)but-3-en-1-ol] |  |  |  | 8 (≈ 17.7 µM) | 64 (≈ 142 µM) | 4 (≈ 8.86 µM) |  |  |  | 
0.5 (≈ 1.12 µM) | COC(=O)C1CC(c2ccc(-c3ccc(/C=C/[C@@H](CO)n4ccnc4[C@H](C)O)cc3)cc2)C1 (stereo partly drawn) [Compound 67, methyl 3-(4′-((S,E)-4-hydroxy-3-(2-((S)-1-hydroxyethyl)-1H-imidazol-1-yl)but-1-en-1-yl)-[1,1′-biphenyl]-4-yl)cyclobutane-1-carboxylate] |  |  |  | 2 (≈ 4.48 µM) | 1 (≈ 2.24 µM) | 2 (≈ 4.48 µM) |  |  |  | 
0.5 (≈ 0.977 µM) | C[C@H](O)c1nccn1[C@@H](/C=C/c1ccc(-c2ccc(C3CC(C(=O)NCc4c[nH]cn4)C3)cc2)cc1)CO (stereo partly drawn) [Compound 55, N-((1H-imidazol-4-yl)methyl)-3-(4′-((S,E)-4-hydroxy-3-(2-((S)-1-hydroxyethyl)-1H-imidazol-1-yl)but-1-en-1-yl)-[1,1′-biphenyl]-4-yl)cyclobutane-1-carboxamide] |  |  |  | 2 (≈ 3.91 µM) | 2 (≈ 3.91 µM) | 2 (≈ 3.91 µM) |  |  |  | 
4 (≈ 9.25 µM) | C[C@H](O)c1nccn1C/C=C/c1ccc(-c2ccc(OCCN3CC(CN)C3)cc2)cc1 [Compound 6, (S,E)-1-(1-(3-(4′-(2-(3-(aminomethyl)azetidin-1-yl)ethoxy)-[1,1′-biphenyl]-4-yl)allyl)-1H-imidazol-2-yl)ethan-1-ol] |  |  |  | 4 (≈ 9.25 µM) | 16 (≈ 37 µM) | 4 (≈ 9.25 µM) |  |  |  | 
2 (≈ 4.77 µM) | C[C@H](O)c1nccn1[C@@H](/C=C/c1ccc(-c2ccc(CO[C@H]3C[C@H]3N)cc2)cc1)CO (racemic) [Compound 16, (S,E)-4-(4′-(((cis)-2-aminocyclopropoxy)methyl)-[1,1′-biphenyl]-4-yl)-2-(2-((S)-1-hydroxyethyl)-1H-imidazol-1-yl)but-3-en-1-ol] |  |  |  | 2 (≈ 4.77 µM) | 8 (≈ 19.1 µM) | 4 (≈ 9.53 µM) |  |  |  | 

SMILES | MIC (E. coli ATCC25922) [µg/mL] | IC50 (P. aeruginosa LpxC) [nM] | IC50 (E. coli LpxC) [nM] | IC50 (K. pneumoniae LpxC) [nM] | MIC (P. aeruginosa 209 PAO1) [µg/mL] | MIC (K. pneumoniae ATCC13883) [µg/mL] | MIC (P. aeruginosa ATCC27835) [µg/mL] | MIC E. coli ATCC25922 (E. coli ATCC25922) [µg/mL] | MIC K. pneumoniae ATCC13883 (K. pneumoniae ATCC13883) [µg/mL] | MIC P. aeruginosa 209 PAO1 (P. aeruginosa 209 PAO1; broth microdilution) [µg/mL] | MIC P. aeruginosa ATCC27835 (P. aeruginosa ATCC27835; broth microdilution) [µg/mL]
C[C@H](O)c1nccn1C/C=C/c1ccc(-c2ccc(OC[C@H](N)CO)cc2)cc1 [Compound 3, (R)-2-amino-3-((4′-((E)-3-(2-((S)-1-hydroxyethyl)-1H-imidazol-1-yl)prop-1-en-1-yl)-[1,1′-biphenyl]-4-yl)oxy)propan-1-ol] | 2 (≈ 5.08 µM) | 132 | 11.4 |  | 4 (≈ 10.2 µM) | 8 (≈ 20.3 µM) | 4 (≈ 10.2 µM) |  |  |  | 
C[C@H](O)c1nccn1[C@@H](/C=C/c1ccc(-c2ccc(OCC(CO)N(C)C)cc2)cc1)CO (mixture of isomers) [Compound 12, (2S,E)-4-(4′-(2-(dimethylamino)-3-hydroxypropoxy)-[1,1′-biphenyl]-4-yl)-2-(2-((S)-1-hydroxyethyl)-1H-imidazol-1-yl)but-3-en-1-ol] | 4 (≈ 8.86 µM) | 69.2 | 82.5 |  | 4 (≈ 8.86 µM) | 16 (≈ 35.4 µM) | 4 (≈ 8.86 µM) |  |  |  | 
C[C@H](O)c1nccn1[C@@H](/C=C/c1ccc(-c2ccc(O[C@H]3C[C@@H]3N)cc2)cc1)CO (single isomer, unassigned) [Compound 14] | 1 (≈ 2.47 µM) | 22.3 | 9.51 |  | 1 (≈ 2.47 µM) | 2 (≈ 4.93 µM) | 8 (≈ 19.7 µM) |  |  |  | 
C[C@H](O)c1nccn1C/C=C/c1ccc(-c2ccc(O[C@@H]3C[C@H]3N)cc2)cc1 (racemic) [Compound 4, (S)-1-(1-((E)-3-(4′-((trans)-2-aminocyclopropoxy)-[1,1′-biphenyl]-4-yl)allyl)-1H-imidazol-2-yl)ethan-1-ol] | 0.12 (≈ 0.32 µM) | 23.2 | 9.25 |  | 2 (≈ 5.33 µM) | 0.12 (≈ 0.32 µM) | 4 (≈ 10.7 µM) |  |  |  | 
C[C@H](O)c1nccn1C/C=C/c1ccc(-c2ccc(OC3CCN(CCO)CC3)cc2)cc1 [Compound 1, (S,E)-2-(4-((4′-(3-(2-(1-hydroxyethyl)-1H-imidazol-1-yl)prop-1-en-1-yl)-[1,1′-biphenyl]-4-yl)oxy)piperidin-1-yl)ethan-1-ol] | 1 (≈ 2.23 µM) | 81 | 25.8 |  | 4 (≈ 8.94 µM) | 1 (≈ 2.23 µM) | 4 (≈ 8.94 µM) |  |  |  | 
C[C@H](O)c1nccn1C/C=C/c1ccc(-c2ccc(OC3CCN(CC(O)CO)CC3)cc2)cc1 (stereo partly drawn) [Compound 2, 3-(4-((4′-((E)-3-(2-((S)-1-hydroxyethyl)-1H-imidazol-1-yl)prop-1-en-1-yl)-[1,1′-biphenyl]-4-yl)oxy)piperidin-1-yl)propane-1,2-diol] | 1 (≈ 2.09 µM) | 15.5 | 17 |  | 4 (≈ 8.38 µM) | 2 (≈ 4.19 µM) | 4 (≈ 8.38 µM) |  |  |  | 
